One data set deals with T1, trypsin (Bos taurus, UniProt P00760).
T1 sequence (P00760 24-246): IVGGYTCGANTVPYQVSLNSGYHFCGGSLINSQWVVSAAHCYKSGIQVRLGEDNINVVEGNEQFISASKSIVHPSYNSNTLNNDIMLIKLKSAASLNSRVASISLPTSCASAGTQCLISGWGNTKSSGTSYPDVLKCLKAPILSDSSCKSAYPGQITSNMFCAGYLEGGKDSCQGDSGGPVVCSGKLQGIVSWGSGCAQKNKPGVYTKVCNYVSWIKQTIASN
The data set can be described thus: Inhibition of trypsin hydrolysis of p-tosylarginine methyl ester in vitro. It is filed as biochemical. Particulars: trypsin 0.5 μg, p-tosylarginine methyl ester 20 mM, Tris-HCl pH 8.5, 37° C., 30 minutes; read-out: 50% Inhibition Concentration Anti-trypsin. Here is the method: (§1) The inhibitory activities of representative compounds of the general formula [I] against plasmin and trypsin in vitro were determined in a manner similar to the method described by M. Muramatsu et al J. Biochemistry, 58, 214 (1964) for trypsin and the method described by M. Muramatsu et al ibid, 57, 402 (1965) for plasmin. The procedures used are described more specifically below.
(1) Trypsin: 0.4 ml of trypsin (1.25 μg/ml), 0.5 ml of p-tosylarginine methyl ester (20 mM) in Tris-HCl buffer (pH 8.5) and 0.1 ml of a solution of each of the following compounds represented by the general formula [I] at various concentrations was reacted at a temperature of 37° C. for 30 minutes, and the concentration of each of the test compounds at which the activity of trypsin 0.5 μg to hydrolyze p-tosylarginine methyl ester was inhibited to an extent of 50% is shown in Table 1 below.

A further data set in a line: Solubility in water. It is filed as physicochemical.
The target of the next data set is T2, plasmin (Homo sapiens, UniProt P00747).
T2 construct: from tissue
The data set can be described thus: Inhibition of plasmin in vitro (human euglobulin, streptokinase, fibrinogen). It is filed as biochemical. Particulars: borate saline buffer pH 7.4, 37° C., 30 minutes, read-out: 50% Inhibition Concentration Anti-Plasmin. Here is the method:
as §1
(2) Plasmin: 0.1 ml of human euglobulin (10 fold dilution), 0.1 ml of streptokinase (2000 unit/ml), 0.4 ml of fibrinogen (4% solution), 0.3 ml of a 0.1 M borate saline buffer solution (pH 7.4) and 0.1 ml of a solution of each of the following compounds represented by the general formula [I] at various concentrations was allowed to react at a temperature of 37° C. for 30 minutes.

The source of these data is US4283418A, “Guanidinobenzoic acid derivatives and process for their preparation” (Ono Pharmaceutical Co., Ltd., priority 1979, dated 1981).

T2 sequence (P00747 97-580 limits assumed): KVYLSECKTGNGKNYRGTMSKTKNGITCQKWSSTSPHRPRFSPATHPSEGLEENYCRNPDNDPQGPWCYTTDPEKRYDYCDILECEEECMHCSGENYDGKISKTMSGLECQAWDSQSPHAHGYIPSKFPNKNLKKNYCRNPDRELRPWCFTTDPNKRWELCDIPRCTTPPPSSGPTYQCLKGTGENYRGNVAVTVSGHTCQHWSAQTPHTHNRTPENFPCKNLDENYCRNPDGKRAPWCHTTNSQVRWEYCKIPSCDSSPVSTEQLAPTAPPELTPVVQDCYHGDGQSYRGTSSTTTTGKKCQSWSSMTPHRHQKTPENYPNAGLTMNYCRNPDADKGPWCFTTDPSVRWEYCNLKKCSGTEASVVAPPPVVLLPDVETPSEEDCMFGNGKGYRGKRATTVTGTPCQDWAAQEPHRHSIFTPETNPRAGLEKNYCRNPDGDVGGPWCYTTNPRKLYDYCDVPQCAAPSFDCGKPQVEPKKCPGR
T2 sequence (P00747 581-810 limits assumed): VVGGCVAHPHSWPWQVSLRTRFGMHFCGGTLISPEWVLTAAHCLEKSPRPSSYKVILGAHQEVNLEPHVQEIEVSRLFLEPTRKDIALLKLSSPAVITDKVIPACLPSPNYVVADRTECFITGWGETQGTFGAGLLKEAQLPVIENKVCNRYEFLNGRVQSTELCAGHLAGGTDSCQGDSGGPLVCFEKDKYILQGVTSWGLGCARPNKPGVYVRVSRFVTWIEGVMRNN

Usually solubility stands for the dissolved amount per volume that the medium holds. As to `CNS(=O)(=O)c1ccc(OC(=O)c2ccc(NC(=N)N)cc2)cc1` [Compound No. 1], the IC50 turned out to be 3 nM at trypsin and 3.1 nM on plasmin. Besides, the solubility in the data set “Solubility in water” was > 20 mM.
As for `CN(C)S(=O)(=O)c1ccc(OC(=O)c2ccc(NC(=N)N)cc2)cc1` [Compound No. 2], the IC50 is 2 nM on trypsin and 6.4 nM at plasmin. In addition, in the data set “Solubility in water”, the solubility is > 20 mM.
Regarding `N=C(N)Nc1ccc(C(=O)Oc2ccc(S(N)(=O)=O)cc2)cc1` [Compound No. 3], the results for the IC50 on trypsin and at plasmin were 2.2 nM and 4.8 nM, respectively. Also, the solubility in the data set “Solubility in water” was > 20 mM.
As for `CN(C)C(=O)Cc1ccc(OC(=O)c2ccc(NC(=N)N)cc2)cc1` [Compound No. 4], the results for the IC50 at trypsin and at plasmin were 3.4 nM and 270 nM, respectively. The solubility in the data set “Solubility in water” was > 20 mM.
As to `CNC(=O)Cc1ccc(OC(=O)c2ccc(NC(=N)N)cc2)cc1` [Compound No. 5], the IC50 on trypsin is 9.1 nM; at plasmin it was 410 nM. In “Solubility in water”, the solubility was > 20 mM.
In the same order, the values of `CN(C)C(=O)c1ccc(OC(=O)c2ccc(NC(=N)N)cc2)cc1` [Compound No. 6] are 11 nM, 95 nM and > 20 mM.
